From patent publication US20250084092A1, “ANNULATED PYRIDAZINE COMPOUND” (Nico Therapeutics, Inc., priority 2021, published 2025)
Structures can show the parent of a compound that is named as a salt.

Each compound was assayed against T1, NLRP3 inflammasome (Homo sapiens, UniProt Q96P20) (assay: THP-1 IL-1β production inhibition test). Details: PMA-treated THP-1 cells, LPS 50 ng/mL + ATP 5 mM, 2 hours, IL-1β in supernatant by ELISA.
T1 construct: endogenous in cells; host or cells: THP-1 cells (PMA-differentiated, stimulated with LPS and ATP)
Assay type: cell-based
Description: PMA (phorbol myristate acetate, SIGMA, P1585) was added to THP-1 cells in an amount of 50 ng/mL to culture the cells for 2 days at 37° C. […] LPS (Lipopolysaccharide, SIMGA, L2880) and ATP (Adenosine triphosphate, SIGMA, A2383) were added so that final concentrations become 50 ng/mL and 5 mM, respectively, followed by culturing at 37° C. for 2 hours. The supernatants were collected to measure the concentrations of IL-1β by ELISA (DuoSet ELISA human IL-1β, R&D Systems, DY201). The IL-1β concentrations were plotted against log concentrations of test compounds, and an IC50 value was calculated by sigmoid Emax model nonlinear regression analysis.

T1 sequence (Q96P20 whole entry): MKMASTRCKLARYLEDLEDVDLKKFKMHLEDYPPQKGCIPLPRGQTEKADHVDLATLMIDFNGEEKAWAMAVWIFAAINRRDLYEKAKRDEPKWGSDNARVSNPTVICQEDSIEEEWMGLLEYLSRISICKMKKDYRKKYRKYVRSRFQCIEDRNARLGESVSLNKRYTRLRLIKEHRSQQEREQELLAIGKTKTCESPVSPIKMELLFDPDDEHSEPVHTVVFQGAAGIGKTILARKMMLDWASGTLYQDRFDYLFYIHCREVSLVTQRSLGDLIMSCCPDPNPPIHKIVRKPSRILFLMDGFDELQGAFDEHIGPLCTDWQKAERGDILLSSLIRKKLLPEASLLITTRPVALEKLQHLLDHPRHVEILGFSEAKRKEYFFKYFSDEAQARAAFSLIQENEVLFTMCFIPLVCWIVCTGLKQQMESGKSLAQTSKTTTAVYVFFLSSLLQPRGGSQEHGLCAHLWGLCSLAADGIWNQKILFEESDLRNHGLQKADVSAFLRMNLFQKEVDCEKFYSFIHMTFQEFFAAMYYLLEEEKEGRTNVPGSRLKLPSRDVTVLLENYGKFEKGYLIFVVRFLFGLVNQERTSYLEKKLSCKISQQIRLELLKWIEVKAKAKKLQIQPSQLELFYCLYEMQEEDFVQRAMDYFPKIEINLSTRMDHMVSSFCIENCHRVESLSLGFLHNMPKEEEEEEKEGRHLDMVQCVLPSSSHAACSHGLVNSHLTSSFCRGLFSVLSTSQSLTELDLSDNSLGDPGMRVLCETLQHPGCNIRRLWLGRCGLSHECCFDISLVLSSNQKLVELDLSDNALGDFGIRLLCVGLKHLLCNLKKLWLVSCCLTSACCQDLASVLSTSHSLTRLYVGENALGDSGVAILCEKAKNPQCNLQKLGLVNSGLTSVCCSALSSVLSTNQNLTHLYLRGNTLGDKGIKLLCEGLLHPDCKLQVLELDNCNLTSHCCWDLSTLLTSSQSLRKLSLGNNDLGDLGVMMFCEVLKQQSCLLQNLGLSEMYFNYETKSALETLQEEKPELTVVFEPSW

Structure (SMILES)	IC50
Oc1cc(C(F)(F)F)ccc1-c1nnc(N[C@@H]2CCCC[C@H]2O)c2ccccc12 [Example 15]	2.8 nM
Oc1cc(Cl)ccc1-c1nnc(N[C@@H]2CCOC[C@H]2O)c2c1CCCC2 [Example 39]	19 nM
Cc1ccc(-c2nnc(N[C@H]3C[C@@](C)(O)C3)c3c2CCCC3)c(O)c1 [Example 31]	44 nM
C[C@]1(O)C[C@@H](Nc2nnc(-c3ccc(C(F)(F)F)cc3O)c3c2CCC3)C1 [Example 59]	40 nM
C[C@@H](O)CNc1nnc(-c2ccc(C(F)(F)F)cc2O)c2cnccc12 [16(2)]	20 nM
Oc1cc(C(F)(F)F)ccc1-c1nnc(N[C@@H]2CCCC[C@H]2O)c2c1CNCC2 [Example 91]	560 nM
C[C@]1(O)C[C@@H](Nc2nnc(-c3ccc(OC(F)(F)F)cc3O)c3c2COCC3)C1 [57(1)]	19 nM
Oc1cc(C(F)(F)F)ccc1-c1nnc(N[C@@H]2CCCC[C@H]2O)c2c1CCCC2 [Example 134, 2-(4-{[(1R,2R)-2-hydroxycyclohexyl]amino}-5,6,7,8-tetrahydrophthalazin-1-yl)-5-(trifluoromethyl)phenol monohydrochloride]	4.6 nM
Oc1cc(C(F)(F)F)ccc1-c1nnc(N[C@@H]2CCCN(C3CC3)C2)c2c1CSC2 [Example 126, 2-(4-{[(3R)-1-cyclopropylpiperidin-3-yl]amino}-5,7-dihydrothieno[3,4-d]pyridazin-1-yl)-5-(trifluoromethyl)phenol]	7.1 nM
Oc1cc(C(F)(F)F)ccc1-c1nnc(N[C@@H]2CCCC[C@H]2O)c2c1COCCC2 [108(1)]	27 nM
Oc1cc(C(F)(F)F)ccc1-c1nnc(N[C@@H]2CCOC[C@H]2O)c2c1COCC2 [101(2)]	8.6 nM
N#C[C@@H]1CCCC[C@H]1Nc1nnc(-c2ccc(C(F)(F)F)cc2O)c2c1CCOC2 [72(2)]	14 nM
CN1CCc2c(-c3ccc(OC(F)(F)F)cc3O)nnc(N[C@@H]3CCCC[C@H]3O)c2C1 [Example 76]	23 nM
CC(=O)N1CCC[C@@H](Nc2nnc(-c3ccc(C(F)(F)F)cc3O)c3c2CSC3)C1 [Example 119]	6 nM
COc1ccc(-c2nnc(N[C@@H]3CCCN(C)C3)c3c2CCOC3)c(O)c1 [Example 110]	1.4 nM
Cc1ccc(-c2nnc(N[C@@H]3CCOC[C@H]3O)c3c2CCCC3)c(O)c1 [Example 36]	32 nM
COc1ccc(-c2nnc(N[C@@H]3CCCC[C@H]3O)c3c2CCOC3)c(O)c1 [Example 69]	6.6 nM
Oc1cc(C(F)(F)F)ccc1-c1nnc(N[C@H]2CCCC[C@@H]2O)c2c1COCC2 [66(1)]	990 nM
Oc1cc(C(F)(F)F)ccc1-c1nnc(N[C@@H]2CCCC[C@H]2O)c2sccc12 [Example 94, 2-(7-{[(1R,2R)-2-hydroxycyclohexyl]amino}thieno[2,3-d]pyridazin-4-yl)-5-(trifluoromethyl)phenol]	5.1 nM
Oc1cc(OC(F)(F)F)ccc1-c1nnc(N[C@@H]2CCCC[C@H]2O)c2c1CCOC2 [Example 135, 2-(4-{[(1R,2R)-2-hydroxycyclohexyl]amino}-7,8-dihydro-5H-pyrano[3,4-d]pyridazin-1-yl)-5-(trifluoromethoxy)phenol monohydrochloride]	2.9 nM
C[C@@H](O)CNc1nnc(-c2ccc(C(F)(F)F)cc2O)c2c1CCCC2 [Example 17]	20 nM
CC(=O)N1CCc2c(-c3ccc(C(F)(F)F)cc3C(F)(F)F)nnc(NC[C@@H](C)O)c2C1 [Example 79, 1-{1-[2,4-bis(trifluoromethyl)phenyl]-4-{[(2R)-2-hydroxypropyl]amino}-7,8-dihydropyrido[3,4-d]pyridazin-6(5H)-yl}ethan-1-one]	4800 nM
CCN1CCc2c(-c3ccc(C(F)(F)F)cc3O)nnc(N[C@@H]3CCCC[C@H]3O)c2C1 [Example 78]	54 nM
C[C@]1(O)C[C@@H](Nc2nnc(-c3ccc(OC(F)(F)F)cc3O)c3c2CCCC3)C1 [Example 32]	76 nM
Oc1cc(C2CC2)ccc1-c1nnc(N[C@@H]2CCCC[C@H]2O)c2c1CCCC2 [Example 51]	13 nM
C[C@@H](O)CCc1nnc(-c2ccc(C(F)(F)F)cc2O)c2c1CCC2 [Example 22]	69 nM
CC(=O)NCCCCNc1nnc(-c2ccc(C(F)(F)F)cc2O)c2c1COCC2 [Example 118]	4.8 nM

The remaining compounds from weak to strong by IC50, led by results:

IC50	Structure (SMILES)
8500 nM	COc1ccc(-c2nnc(NCCCO)c3c2CCCC3)cc1 [Example 7]
1300 nM	C[C@@H](O)CNc1nnc(-c2ccc(C(F)(F)F)cc2C(F)(F)F)c2c1CN(Cc1ccccc1)CC2 [Example 9]
210 nM	C[C@@H](O)CNc1nnc(-c2ccc(C(F)(F)F)cc2C(F)(F)F)c2c1CCC2 [Example 8]
96 nM	Oc1ccccc1-c1nnc(N[C@@H]2CCCC[C@H]2O)c2c1CCOC2 [Example 61]
81 nM	Oc1cc(C(F)(F)F)ccc1-c1nnc(N[C@@H]2CCCC[C@H]2O)c2c1CCC2 [Example 19]
74 nM	C[C@@H](O)CNc1nnc(-c2ccc(C(F)(F)F)cc2O)c2c1[C@H]1CC[C@@H]2CC1 [Example 24]
61 nM	N[C@@H]1CCCC[C@H]1Nc1nnc(-c2ccc(C(F)(F)F)cc2O)c2c1CCOC2 [Example 95, 2-(1-{[(1R,2R)-2-aminocyclohexyl]amino}-7,8-dihydro-5H-pyrano[3,4-d]pyridazin-4-yl)-5-(trifluoromethyl)phenol]
58 nM	Oc1cc(C(F)(F)F)ccc1-c1nnc(NCC2(O)CCC2)c2ccccc12 [Example 12]
54 nM	CN1CCc2c(N[C@@H]3CCCC[C@H]3O)nnc(-c3ccc(C(F)(F)F)cc3O)c2C1 [Example 75]
37 nM	Oc1cc(C(F)(F)F)ccc1-c1nnc(N[C@@H]2CCCC[C@H]2O)c2c1OCCC2 [Example 42]
36 nM	C[C@]1(O)C[C@@H](Nc2nnc(-c3ccc(C(F)(F)F)cc3O)c3c2CCOC3)C1 [56(2)]
36 nM	Cc1ccc(-c2nnc(N[C@@H]3CCCC[C@@]3(C)O)c3c2CCCC3)c(O)c1 [Example 55]
34 nM	C[C@@H](O)CNc1nnc(-c2ccc(C(F)(F)F)cc2O)c2c1CCC2 [Example 18]
33 nM	Cc1ccc(-c2nnc(N[C@@H]3CCCC[C@H]3O)c3c2CCN(C)C3)c(O)c1 [Example 77]
31 nM	C[C@@]1(O)CCCC[C@H]1Nc1nnc(-c2ccc(OC(F)F)cc2O)c2c1CCCC2 [Example 89]
27 nM	Cc1cc(O)c(-c2nnc(N[C@@H]3CCCC[C@H]3O)c3c2COCC3)c(F)c1 [62(2)]
27 nM	Oc1cc(C2CC2)ccc1-c1nnc(N[C@@H]2CCCC[C@H]2O)c2c1COCC2 [52(2)]
27 nM	N#C[C@@H]1CCCC[C@H]1Nc1nnc(-c2ccc(C(F)(F)F)cc2O)c2c1COCC2 [72(1)]
22 nM	C[C@@H](O)CCc1nnc(-c2ccc(C(F)(F)F)cc2O)c2c1CCCC2 [Example 20]
22 nM	C[C@]1(O)C[C@@H](Nc2nnc(-c3ccc(Cl)cc3O)c3c2CCCC3)C1 [Example 30]

IC50	Structure (SMILES)
21 nM	C[C@@]1(O)CCCC[C@H]1Nc1nnc(-c2ccc(OC(F)(F)F)cc2O)c2c1CCCC2 [Example 54]
18 nM	C[C@]1(O)C[C@@H](Nc2nnc(-c3ccc(C(F)(F)F)cc3O)c3c2CCCC3)C1 [Example 29]
17 nM	CC(=O)N[C@@H]1CCCC[C@H]1Nc1nnc(-c2ccc(C(F)(F)F)cc2O)c2ccccc12 [Example 23]
16 nM	Oc1cc(C(F)(F)F)ccc1-c1nnc(N[C@@H]2CCOC[C@H]2O)c2c1CCCC2 [Example 35]
16 nM	COc1ccc(-c2nnc(N[C@@H]3CCCC[C@H]3O)c3c2CCCCC3)c(O)c1 [Example 47]
15 nM	C[C@@]1(O)CCCC[C@H]1Nc1nnc(-c2ccc(C(F)(F)F)cc2O)c2c1CCCC2 [Example 53]
15 nM	OCC1(CNc2nnc(-c3ccc(C(F)(F)F)cc3O)c3ccccc23)CC1 [Example 13]
15 nM	Cc1ccc(-c2nnc(N[C@@H]3CCCC[C@H]3O)c3c2CCCC3)c(O)c1 [Example 26]
15 nM	Oc1cc(C(F)F)ccc1-c1nnc(N[C@@H]2CCC[C@H](O)C2)c2c1COC2 [Example 114, 5-(difluoromethyl)-2-(4-{[(1R,3S)-3-hydroxycyclohexyl]amino}-5,7-dihydrofuro[3,4-d]pyridazin-1-yl)phenol]
11 nM	Cc1ccc(-c2nnc(N[C@@H]3CCOC[C@H]3O)c3c2CCCCC3)c(O)c1 [Example 46]
11 nM	Oc1cc(C(F)F)ccc1-c1nnc(N[C@@H]2CCCC[C@H]2O)c2c1COC2 [Example 115]
9.4 nM	CC(=O)N1CCC[C@@H](Nc2nnc(-c3ccc(C(F)(F)F)cc3O)c3ccccc23)C1 [Example 63]
7.6 nM	Oc1cc(C(F)(F)F)ccc1-c1nnc(NC[C@H]2CCCO2)c2ccccc12 [Example 14]
6.8 nM	Oc1cc(C(F)(F)F)ccc1-c1nnc(N[C@@H]2CCOC[C@H]2O)c2c1CCCCC2 [Example 44]
4.4 nM	Oc1cc(OC(F)F)ccc1-c1nnc(N[C@@H]2CCCC[C@H]2O)c2c1CCCOC2 [Example 116]
4.1 nM	Oc1cc(OC(F)(F)F)ccc1-c1nnc(N[C@@H]2CCCC[C@H]2O)c2c1CCCC2 [Example 27]
3 nM	Oc1cc(C(F)(F)F)ccc1-c1nnc(N[C@@H]2CCCC[C@H]2O)c2c1CCCOC2 [108(2)]
2 nM	Oc1cc(C(F)(F)F)ccc1-c1nnc(N[C@@H]2CCOC[C@H]2O)c2c1CCOC2 [101(1)]
1.5 nM	CN1CCC[C@@H](Nc2nnc(-c3ccc(Cl)cc3O)c3c2COCC3)C1 [Example 109]
1 nM	CN1CCC[C@@H](Nc2nnc(-c3ccc(OC(F)F)cc3O)c3c2CCOC3)C1 [Example 120]
